{"source": "patent US12102089B2", "about": "“Method for inactivating mold spores” (DSM IP ASSETS B.V., priority 2017, dated 2024)", "tested_on": "in-house strain of Aspergillus niger", "experiment": "Heat treatment of in-house Aspergillus niger spores in ice tea with natamycin, visual growth", "assay_type": "cell-based", "set-up": "key to growth or no growth: growth (+); no growth (−)", "experimental": "Commercially available ice tea (Lipton, peach flavor, non-carbonated, 1.5 L) was adjusted to high water hardness by adding 1 ml of a solution of 39 g CaCl2 and 27 g MgCl2 added to 934 g water. ⅓ of this ice tea preparation (the pH of which was 3.15) was left as-such, ⅓ of the preparation was enriched with 5 ppm natamycin and ⅓ of the preparation was enriched with 10 ppm natamycin. Samples of 5 ml were made from each preparation in 15 ml sterile plastic tubes. Of each preparation 8 samples were pre-heated to the desired pasteurization temperature using a water bath. Temperatures used were RT, 60, 65, 70, 75, 80, 85 and 90° C. When the desired temperature was reached, 100 μl of a 2500 spores/ml spore suspension of Aspergillus niger ATCC 9029AA was added to each tube. Subsequently, the samples were kept for 30 seconds at the temperature in question in the water bath. Next, the samples were cooled on ice to a temperature of 25° C. Samples were incubated at 25° C. and visually examined for growth (formation of mold flakes or turbidity) for two months. Additionally, samples were enumerated according to ISO protocol 21527-1.2008 on day 0 (before heat treatment) and day 1 (after heat treatment) to count immediate loss of viability. […] For the results, see Table 1. […] For comparative reasons, Example 1 was repeated with an in-house strain of Aspergillus niger. […] For the results, see Table 2.", "data": [{"compound": "C[C@@H]1C/C=C/C=C/C=C/C=C/[C@H](O[C@@H]2O[C@H](C)[C@@H](O)[C@H](N)[C@@H]2O)C[C@@H]2O[C@](O)(C[C@@H](O)C[C@H]3O[C@@H]3/C=C/C(=O)O1)C[C@H](O)[C@H]2C(=O)O", "note": "[natamycin]", "values": [{"measurement": "growth or no growth", "setting": "60°C, 5 ppm, day 1", "result": "−"}, {"measurement": "growth or no growth", "setting": "60°C, 5 ppm, day 2", "result": "−"}, {"measurement": "growth or no growth", "setting": "60°C, 5 ppm, day 3", "result": "−"}, {"measurement": "growth or no growth", "setting": "60°C, 5 ppm, day 4", "result": "−"}, {"measurement": "growth or no growth", "setting": "60°C, 5 ppm, day 5", "result": "−"}, {"measurement": "growth or no growth", "setting": "60°C, 5 ppm, day 6", "result": "−"}, {"measurement": "growth or no growth", "setting": "60°C, 5 ppm, day 7", "result": "+"}, {"measurement": "growth or no growth", "setting": "60°C, 5 ppm, day 8", "result": "+"}, {"measurement": "growth or no growth", "setting": "60°C, 5 ppm, day 9", "result": "+"}, {"measurement": "growth or no growth", "setting": "60°C, 5 ppm, day 10", "result": "+"}, {"measurement": "growth or no growth", "setting": "60°C, 5 ppm, day 11", "result": "+"}, {"measurement": "growth or no growth", "setting": "60°C, 5 ppm, day 12", "result": "+"}, {"measurement": "growth or no growth", "setting": "60°C, 5 ppm, day 13", "result": "+"}, {"measurement": "growth or no growth", "setting": "60°C, 5 ppm, day 14", "result": "+"}, {"measurement": "growth or no growth", "setting": "60°C, 10 ppm, day 1", "result": "−"}, {"measurement": "growth or no growth", "setting": "60°C, 10 ppm, day 2", "result": "−"}, {"measurement": "growth or no growth", "setting": "60°C, 10 ppm, day 3", "result": "−"}, {"measurement": "growth or no growth", "setting": "60°C, 10 ppm, day 4", "result": "−"}, {"measurement": "growth or no growth", "setting": "60°C, 10 ppm, day 5", "result": "−"}, {"measurement": "growth or no growth", "setting": "60°C, 10 ppm, day 6", "result": "−"}, {"measurement": "growth or no growth", "setting": "60°C, 10 ppm, day 7", "result": "−"}, {"measurement": "growth or no growth", "setting": "60°C, 10 ppm, day 8", "result": "−"}, {"measurement": "growth or no growth", "setting": "60°C, 10 ppm, day 9", "result": "−"}, {"measurement": "growth or no growth", "setting": "60°C, 10 ppm, day 10", "result": "−"}, {"measurement": "growth or no growth", "setting": "60°C, 10 ppm, day 11", "result": "+"}, {"measurement": "growth or no growth", "setting": "60°C, 10 ppm, day 12", "result": "+"}, {"measurement": "growth or no growth", "setting": "60°C, 10 ppm, day 13", "result": "+"}, {"measurement": "growth or no growth", "setting": "60°C, 10 ppm, day 14", "result": "+"}, {"measurement": "germination", "setting": "65° C., 70° C. and 80° C., in the presence of natamycin", "result": "no germination occurred"}, {"measurement": "growth or no growth", "setting": "65°C, 5 ppm, day 1", "result": "−"}, {"measurement": "growth or no growth", "setting": "65°C, 5 ppm, day 2", "result": "−"}, {"measurement": "growth or no growth", "setting": "65°C, 5 ppm, day 3", "result": "−"}, {"measurement": "growth or no growth", "setting": "65°C, 5 ppm, day 4", "result": "−"}, {"measurement": "growth or no growth", "setting": "65°C, 5 ppm, day 5", "result": "−"}, {"measurement": "growth or no growth", "setting": "65°C, 5 ppm, day 6", "result": "−"}, {"measurement": "growth or no growth", "setting": "65°C, 5 ppm, day 7", "result": "−"}, {"measurement": "growth or no growth", "setting": "65°C, 5 ppm, day 8", "result": "−"}, {"measurement": "growth or no growth", "setting": "65°C, 5 ppm, day 9", "result": "−"}, {"measurement": "growth or no growth", "setting": "65°C, 5 ppm, day 10", "result": "−"}, {"measurement": "growth or no growth", "setting": "65°C, 5 ppm, day 11", "result": "−"}, {"measurement": "growth or no growth", "setting": "65°C, 5 ppm, day 12", "result": "−"}, {"measurement": "growth or no growth", "setting": "65°C, 5 ppm, day 13", "result": "−"}, {"measurement": "growth or no growth", "setting": "65°C, 5 ppm, day 14", "result": "−"}, {"measurement": "growth or no growth", "setting": "65°C, 10 ppm, day 1", "result": "−"}, {"measurement": "growth or no growth", "setting": "65°C, 10 ppm, day 2", "result": "−"}, {"measurement": "growth or no growth", "setting": "65°C, 10 ppm, day 3", "result": "−"}, {"measurement": "growth or no growth", "setting": "65°C, 10 ppm, day 4", "result": "−"}, {"measurement": "growth or no growth", "setting": "65°C, 10 ppm, day 5", "result": "−"}, {"measurement": "growth or no growth", "setting": "65°C, 10 ppm, day 6", "result": "−"}, {"measurement": "growth or no growth", "setting": "65°C, 10 ppm, day 7", "result": "−"}, {"measurement": "growth or no growth", "setting": "65°C, 10 ppm, day 8", "result": "−"}, {"measurement": "growth or no growth", "setting": "65°C, 10 ppm, day 9", "result": "−"}, {"measurement": "growth or no growth", "setting": "65°C, 10 ppm, day 10", "result": "−"}, {"measurement": "growth or no growth", "setting": "65°C, 10 ppm, day 11", "result": "−"}, {"measurement": "growth or no growth", "setting": "65°C, 10 ppm, day 12", "result": "−"}, {"measurement": "growth or no growth", "setting": "65°C, 10 ppm, day 13", "result": "−"}, {"measurement": "growth or no growth", "setting": "65°C, 10 ppm, day 14", "result": "−"}, {"measurement": "growth or no growth", "setting": "70°C, 5 ppm, day 1", "result": "−"}, {"measurement": "growth or no growth", "setting": "70°C, 5 ppm, day 2", "result": "−"}, {"measurement": "growth or no growth", "setting": "70°C, 5 ppm, day 3", "result": "−"}, {"measurement": "growth or no growth", "setting": "70°C, 5 ppm, day 4", "result": "−"}, {"measurement": "growth or no growth", "setting": "70°C, 5 ppm, day 5", "result": "−"}, {"measurement": "growth or no growth", "setting": "70°C, 5 ppm, day 6", "result": "−"}, {"measurement": "growth or no growth", "setting": "70°C, 5 ppm, day 7", "result": "−"}, {"measurement": "growth or no growth", "setting": "70°C, 5 ppm, day 8", "result": "−"}, {"measurement": "growth or no growth", "setting": "70°C, 5 ppm, day 9", "result": "−"}, {"measurement": "growth or no growth", "setting": "70°C, 5 ppm, day 10", "result": "−"}, {"measurement": "growth or no growth", "setting": "70°C, 5 ppm, day 11", "result": "−"}, {"measurement": "growth or no growth", "setting": "70°C, 5 ppm, day 12", "result": "−"}, {"measurement": "growth or no growth", "setting": "70°C, 5 ppm, day 13", "result": "−"}, {"measurement": "growth or no growth", "setting": "70°C, 5 ppm, day 14", "result": "−"}, {"measurement": "growth or no growth", "setting": "70°C, 10 ppm, day 1", "result": "−"}, {"measurement": "growth or no growth", "setting": "70°C, 10 ppm, day 2", "result": "−"}, {"measurement": "growth or no growth", "setting": "70°C, 10 ppm, day 3", "result": "−"}, {"measurement": "growth or no growth", "setting": "70°C, 10 ppm, day 4", "result": "−"}, {"measurement": "growth or no growth", "setting": "70°C, 10 ppm, day 5", "result": "−"}, {"measurement": "growth or no growth", "setting": "70°C, 10 ppm, day 6", "result": "−"}, {"measurement": "growth or no growth", "setting": "70°C, 10 ppm, day 7", "result": "−"}, {"measurement": "growth or no growth", "setting": "70°C, 10 ppm, day 8", "result": "−"}, {"measurement": "growth or no growth", "setting": "70°C, 10 ppm, day 9", "result": "−"}, {"measurement": "growth or no growth", "setting": "70°C, 10 ppm, day 10", "result": "−"}, {"measurement": "growth or no growth", "setting": "70°C, 10 ppm, day 11", "result": "−"}, {"measurement": "growth or no growth", "setting": "70°C, 10 ppm, day 12", "result": "−"}, {"measurement": "growth or no growth", "setting": "70°C, 10 ppm, day 13", "result": "−"}, {"measurement": "growth or no growth", "setting": "70°C, 10 ppm, day 14", "result": "−"}, {"measurement": "growth or no growth", "setting": "75°C, 5 ppm, day 1", "result": "−"}, {"measurement": "growth or no growth", "setting": "75°C, 5 ppm, day 2", "result": "−"}, {"measurement": "growth or no growth", "setting": "75°C, 5 ppm, day 3", "result": "−"}, {"measurement": "growth or no growth", "setting": "75°C, 5 ppm, day 4", "result": "−"}, {"measurement": "growth or no growth", "setting": "75°C, 5 ppm, day 5", "result": "−"}, {"measurement": "growth or no growth", "setting": "75°C, 5 ppm, day 6", "result": "−"}, {"measurement": "growth or no growth", "setting": "75°C, 5 ppm, day 7", "result": "−"}, {"measurement": "growth or no growth", "setting": "75°C, 5 ppm, day 8", "result": "−"}, {"measurement": "growth or no growth", "setting": "75°C, 5 ppm, day 9", "result": "−"}, {"measurement": "growth or no growth", "setting": "75°C, 5 ppm, day 10", "result": "−"}, {"measurement": "growth or no growth", "setting": "75°C, 5 ppm, day 11", "result": "−"}, {"measurement": "growth or no growth", "setting": "75°C, 5 ppm, day 12", "result": "−"}, {"measurement": "growth or no growth", "setting": "75°C, 5 ppm, day 13", "result": "−"}, {"measurement": "growth or no growth", "setting": "75°C, 5 ppm, day 14", "result": "−"}, {"measurement": "growth or no growth", "setting": "75°C, 10 ppm, day 9", "result": "−"}, {"measurement": "growth or no growth", "setting": "75°C, 10 ppm, day 10", "result": "−"}, {"measurement": "germination", "setting": "RT and 60° C., 5 ppm natamycin", "result": "delayed germination"}, {"measurement": "germination", "setting": "RT and 60° C., 10 ppm natamycin", "result": "longer delay"}]}]}
